The source made the active and inactive calls. No cut-off for these calls is given here.
Columns and labels:
Activin receptor type-1B = target: T1, Activin receptor type-1B (Homo sapiens, UniProt P36896); test: Inhibition of human ALK4 using casein as substrate in presence of [gamma-33P]-ATP by radiometric hotspot assay; type: ADME
T1 sequence (P36896 whole entry): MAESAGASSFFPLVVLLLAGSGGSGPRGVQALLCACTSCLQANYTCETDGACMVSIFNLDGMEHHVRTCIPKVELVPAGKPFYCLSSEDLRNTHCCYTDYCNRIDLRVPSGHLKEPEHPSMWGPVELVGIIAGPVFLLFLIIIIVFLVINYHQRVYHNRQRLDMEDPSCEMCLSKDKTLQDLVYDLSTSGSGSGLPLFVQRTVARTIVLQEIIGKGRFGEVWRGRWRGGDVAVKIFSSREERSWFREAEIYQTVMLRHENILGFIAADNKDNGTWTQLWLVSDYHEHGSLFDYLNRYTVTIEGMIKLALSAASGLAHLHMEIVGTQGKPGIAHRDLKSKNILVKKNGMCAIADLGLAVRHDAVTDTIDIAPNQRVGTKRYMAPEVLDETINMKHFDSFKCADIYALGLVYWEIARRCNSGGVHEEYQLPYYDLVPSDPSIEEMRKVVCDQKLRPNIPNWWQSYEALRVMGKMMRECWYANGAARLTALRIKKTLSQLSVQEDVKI

[1] = target: Tyrosine-protein kinase ABL1 (Homo sapiens, UniProt P00519); test: Inhibition of ABL1 (unknown origin)
Chain of Tyrosine-protein kinase ABL1 (P00519 whole entry): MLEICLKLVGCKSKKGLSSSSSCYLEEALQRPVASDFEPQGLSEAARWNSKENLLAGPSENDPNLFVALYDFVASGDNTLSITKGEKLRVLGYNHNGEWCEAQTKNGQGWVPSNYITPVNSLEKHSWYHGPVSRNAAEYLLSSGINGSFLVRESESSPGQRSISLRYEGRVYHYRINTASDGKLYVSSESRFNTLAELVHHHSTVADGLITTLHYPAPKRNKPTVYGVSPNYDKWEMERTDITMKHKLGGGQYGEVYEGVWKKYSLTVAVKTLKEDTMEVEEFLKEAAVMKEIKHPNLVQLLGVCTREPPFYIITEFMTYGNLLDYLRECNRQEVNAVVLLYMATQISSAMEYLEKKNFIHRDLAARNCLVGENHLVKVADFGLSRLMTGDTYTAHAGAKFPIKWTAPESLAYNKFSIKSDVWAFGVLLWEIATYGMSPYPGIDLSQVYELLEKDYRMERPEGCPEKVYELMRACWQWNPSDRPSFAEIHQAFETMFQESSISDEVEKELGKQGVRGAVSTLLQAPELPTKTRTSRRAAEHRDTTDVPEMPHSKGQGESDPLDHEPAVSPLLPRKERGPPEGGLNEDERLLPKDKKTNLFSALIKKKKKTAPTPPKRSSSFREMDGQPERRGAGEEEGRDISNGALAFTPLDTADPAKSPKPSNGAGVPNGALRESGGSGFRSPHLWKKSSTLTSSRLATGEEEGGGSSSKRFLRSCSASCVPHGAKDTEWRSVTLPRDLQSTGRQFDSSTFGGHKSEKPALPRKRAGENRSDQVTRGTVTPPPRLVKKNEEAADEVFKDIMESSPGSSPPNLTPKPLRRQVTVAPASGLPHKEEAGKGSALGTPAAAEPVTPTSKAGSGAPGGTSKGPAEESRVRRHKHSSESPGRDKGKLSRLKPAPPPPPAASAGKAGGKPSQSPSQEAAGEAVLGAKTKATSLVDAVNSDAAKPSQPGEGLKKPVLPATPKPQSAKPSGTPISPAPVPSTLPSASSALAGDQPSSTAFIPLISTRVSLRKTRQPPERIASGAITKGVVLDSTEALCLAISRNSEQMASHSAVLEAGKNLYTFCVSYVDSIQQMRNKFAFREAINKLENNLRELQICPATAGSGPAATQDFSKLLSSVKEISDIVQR

[2] = target: Protein-tyrosine kinase 6 (Homo sapiens, UniProt Q13882); test: Inhibition of BRK (unknown origin)
[3] = target: Epithelial discoidin domain-containing receptor 1 (Homo sapiens, UniProt Q08345); test: Inhibition of DDR1 (unknown origin)
Chain of Epithelial discoidin domain-containing receptor 1 (Q08345 whole entry, the tested form may be a part): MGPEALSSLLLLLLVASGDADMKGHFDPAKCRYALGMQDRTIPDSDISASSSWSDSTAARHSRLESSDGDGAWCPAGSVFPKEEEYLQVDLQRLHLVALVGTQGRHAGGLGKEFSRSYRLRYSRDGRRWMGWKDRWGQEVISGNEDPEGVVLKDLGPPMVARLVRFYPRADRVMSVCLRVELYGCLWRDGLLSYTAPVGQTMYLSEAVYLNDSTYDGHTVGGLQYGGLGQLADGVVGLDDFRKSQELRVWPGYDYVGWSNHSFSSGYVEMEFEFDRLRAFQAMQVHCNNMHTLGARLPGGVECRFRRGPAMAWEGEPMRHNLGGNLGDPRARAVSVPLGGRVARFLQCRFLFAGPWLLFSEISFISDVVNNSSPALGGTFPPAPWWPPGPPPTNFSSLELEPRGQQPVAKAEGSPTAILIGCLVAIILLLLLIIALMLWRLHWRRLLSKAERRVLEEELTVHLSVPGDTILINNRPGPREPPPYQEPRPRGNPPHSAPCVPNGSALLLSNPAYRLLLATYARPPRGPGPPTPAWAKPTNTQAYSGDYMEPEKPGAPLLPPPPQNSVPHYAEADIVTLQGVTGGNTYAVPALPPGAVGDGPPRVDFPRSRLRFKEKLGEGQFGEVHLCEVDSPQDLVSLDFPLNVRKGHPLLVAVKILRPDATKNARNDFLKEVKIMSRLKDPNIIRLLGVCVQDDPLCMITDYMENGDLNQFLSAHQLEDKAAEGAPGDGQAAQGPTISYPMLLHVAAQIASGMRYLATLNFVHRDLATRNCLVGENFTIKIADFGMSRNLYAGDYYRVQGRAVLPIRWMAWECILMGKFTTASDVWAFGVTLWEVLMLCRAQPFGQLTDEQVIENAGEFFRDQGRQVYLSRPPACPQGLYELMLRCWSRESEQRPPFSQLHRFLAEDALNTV

Misshapen-like kinase 1 = Misshapen-like kinase 1 (Homo sapiens, UniProt Q8N4C8); test: Inhibition of MINK (unknown origin)
[4] = target: Serine/threonine-protein kinase NLK (Homo sapiens, UniProt Q9UBE8); test: Inhibition of NLK (unknown origin)
Chain of Serine/threonine-protein kinase NLK (Q9UBE8 whole entry): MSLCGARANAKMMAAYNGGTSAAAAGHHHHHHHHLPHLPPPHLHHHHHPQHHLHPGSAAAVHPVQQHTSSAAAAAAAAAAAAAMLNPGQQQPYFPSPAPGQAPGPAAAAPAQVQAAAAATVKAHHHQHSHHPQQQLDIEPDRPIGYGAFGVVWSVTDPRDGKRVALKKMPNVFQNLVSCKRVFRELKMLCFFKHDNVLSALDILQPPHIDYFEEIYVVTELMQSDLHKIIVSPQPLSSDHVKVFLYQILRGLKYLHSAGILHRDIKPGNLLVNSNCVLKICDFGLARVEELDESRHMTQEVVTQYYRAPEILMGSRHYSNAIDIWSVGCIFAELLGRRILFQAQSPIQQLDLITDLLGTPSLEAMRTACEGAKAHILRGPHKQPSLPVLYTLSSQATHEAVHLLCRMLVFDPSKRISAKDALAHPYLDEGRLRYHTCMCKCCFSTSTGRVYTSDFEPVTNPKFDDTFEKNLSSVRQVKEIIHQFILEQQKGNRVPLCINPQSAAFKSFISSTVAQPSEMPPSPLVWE

[5] = target: TRAF2 and NCK-interacting protein kinase (Homo sapiens, UniProt Q9UKE5); test: Inhibition of TNIK (unknown origin)
[6] = target: Mitogen-activated protein kinase kinase kinase 20 (Homo sapiens, UniProt Q9NYL2); test: Inhibition of ZAK (unknown origin)
[7] = target: Alpha-2A adrenergic receptor (Homo sapiens, UniProt P08913); test: Inhibition of recombinant human adrenergic alpha2A receptor incubated for 60 mins by scintillation counting method
Chain of Alpha-2A adrenergic receptor (P08913 whole entry): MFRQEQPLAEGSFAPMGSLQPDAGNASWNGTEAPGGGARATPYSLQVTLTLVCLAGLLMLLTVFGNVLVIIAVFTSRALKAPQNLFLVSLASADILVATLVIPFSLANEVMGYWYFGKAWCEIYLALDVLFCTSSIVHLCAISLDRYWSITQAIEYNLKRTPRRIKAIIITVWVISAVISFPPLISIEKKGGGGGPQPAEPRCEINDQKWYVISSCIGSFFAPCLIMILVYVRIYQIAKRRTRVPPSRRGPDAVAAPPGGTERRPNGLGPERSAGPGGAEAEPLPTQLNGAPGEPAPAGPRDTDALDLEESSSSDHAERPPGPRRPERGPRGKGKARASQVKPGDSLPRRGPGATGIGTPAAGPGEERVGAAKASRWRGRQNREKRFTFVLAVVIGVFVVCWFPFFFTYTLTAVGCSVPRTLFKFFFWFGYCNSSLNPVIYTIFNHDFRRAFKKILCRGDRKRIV

Cytochrome P450 2C9 = Cytochrome P450 2C9 (Homo sapiens, UniProt P11712); test: Inhibition of CYP2C9 in human liver microsomes using tolbutamide as substrate incubated for 20 mins in presence of NADPH by LC/MS/MS analysis; type: ADME
Chain of Cytochrome P450 2C9 (P11712 whole entry): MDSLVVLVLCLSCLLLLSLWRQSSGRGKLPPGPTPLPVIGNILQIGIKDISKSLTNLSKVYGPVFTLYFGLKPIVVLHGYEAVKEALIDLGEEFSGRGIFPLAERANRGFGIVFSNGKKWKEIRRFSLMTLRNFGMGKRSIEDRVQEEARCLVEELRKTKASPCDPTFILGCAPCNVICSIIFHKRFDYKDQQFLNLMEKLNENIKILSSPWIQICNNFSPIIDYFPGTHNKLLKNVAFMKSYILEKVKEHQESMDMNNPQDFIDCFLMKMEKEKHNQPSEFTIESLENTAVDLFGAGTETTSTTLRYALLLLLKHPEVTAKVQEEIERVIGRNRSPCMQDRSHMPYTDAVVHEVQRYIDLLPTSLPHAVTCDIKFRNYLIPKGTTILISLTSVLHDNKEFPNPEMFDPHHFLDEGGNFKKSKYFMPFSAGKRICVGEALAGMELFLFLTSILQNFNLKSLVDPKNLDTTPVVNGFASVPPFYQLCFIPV

Cytochrome P450 2D6 = Cytochrome P450 2D6 (Homo sapiens, UniProt P10635); test: Inhibition of CYP2D6 in human liver microsomes using dextromethorphan as substrate incubated for 20 mins in presence of NADPH by LC/MS/MS analysis; type: ADME
Chain of Cytochrome P450 2D6 (P10635 whole entry): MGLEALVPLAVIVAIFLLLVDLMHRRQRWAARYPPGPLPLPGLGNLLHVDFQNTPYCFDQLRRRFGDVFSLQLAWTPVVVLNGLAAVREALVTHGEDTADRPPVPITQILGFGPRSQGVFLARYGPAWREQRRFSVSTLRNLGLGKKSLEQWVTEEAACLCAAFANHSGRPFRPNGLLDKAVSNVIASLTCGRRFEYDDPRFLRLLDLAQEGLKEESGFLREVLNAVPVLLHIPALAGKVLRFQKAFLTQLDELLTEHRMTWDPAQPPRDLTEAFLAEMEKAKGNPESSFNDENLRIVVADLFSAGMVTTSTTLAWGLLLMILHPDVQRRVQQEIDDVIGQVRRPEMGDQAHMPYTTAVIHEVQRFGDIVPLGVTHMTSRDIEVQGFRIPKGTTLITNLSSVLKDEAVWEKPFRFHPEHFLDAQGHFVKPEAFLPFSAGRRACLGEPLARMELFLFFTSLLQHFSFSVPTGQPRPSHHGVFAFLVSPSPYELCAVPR

[8] = Stability in CD1 mouse liver microsomes assessed as compound remaining at 1 uM incubated for 60 mins by LC/MS analysis; type: ADME, Microsome; conditions: read-out: Stability
[9] = Stability in human liver microsomes assessed as compound remaining at 1 uM incubated for 60 mins by LC/MS analysis; type: ADME, Microsome; conditions: read-out: Stability
[10] = Protein binding in human plasma at 5 uM after 4 hrs by rapid equilibrium dialysis; type: ADME, cell-free; conditions: read-out: PPB (converted)
[11] = Protein binding in human plasma assessed as free fraction at 5 uM after 4 hrs by rapid equilibrium dialysis; type: ADME, cell-free
[12] = Half life in CD1 mouse liver microsomes at 1 uM incubated for 60 mins by LC/MS analysis; type: ADME, Microsome
[13] = Half life in human liver microsomes at 1 uM incubated for 60 mins by LC/MS analysis; type: ADME, Microsome
[14] = Clearance in CB17 SCID mouse at 2 mg/kg, iv after 0.25 to 24 hrs by LC/MS/MS method; type: ADME, organism-based; conditions: in vivo
[15] = Clearance in SD rat at 2 mg/kg, iv after 0.25 to 24 hrs by LC/MS/MS method; type: ADME, organism-based; conditions: in vivo
[16] = Volume of distribution at steady state in CB17 SCID mouse at 2 mg/kg, iv after 0.25 to 24 hrs by LC/MS/MS method; type: ADME, organism-based; conditions: in vivo, read-out: Vdss
[17] = Volume of distribution at steady state in SD rat at 2 mg/kg, iv after 0.25 to 24 hrs by LC/MS/MS method; type: ADME, organism-based; conditions: in vivo, read-out: Vdss
[18] = Half life in CB17 SCID mouse at 10 mg/kg, po after 0.25 to 24 hrs by LC/MS/MS method; type: ADME, organism-based; conditions: in vivo
[19] = Half life in SD rat at 10 mg/kg, po after 0.25 to 24 hrs by LC/MS/MS method; type: ADME, organism-based; conditions: in vivo
[20] = Cmax in CB17 SCID mouse at 10 mg/kg, po after 0.25 to 24 hrs by LC/MS/MS method; type: ADME, organism-based; set-up: dose 10 mg/kg, route oral; conditions: in vivo
[21] = Cmax in SD rat at 10 mg/kg, po after 0.25 to 24 hrs by LC/MS/MS method; type: ADME, organism-based; set-up: dose 10 mg/kg, route oral; conditions: in vivo
[22] = AUCinfinity in CB17 SCID mouse at 10 mg/kg, po after 0.25 to 24 hrs by LC/MS/MS method; type: ADME, organism-based; set-up: dose 10 mg/kg, time infinity, route oral; conditions: in vivo
[23] = AUCinfinity in SD rat at 10 mg/kg, po after 0.25 to 24 hrs by LC/MS/MS method; type: ADME, organism-based; set-up: dose 10 mg/kg, route oral, time infinity; conditions: in vivo
[24] = Oral bioavailability in CB17 SCID mouse at 10 mg/kg after 0.25 to 24 hrs by LC/MS/MS method; type: ADME, organism-based; conditions: in vivo
[25] = Oral bioavailability in SD rat at 10 mg/kg after 0.25 to 24 hrs by LC/MS/MS method; type: ADME, organism-based; conditions: in vivo
[26] = Ratio of drug level in brain to plasma in CB17 SCID mouse at 100 mg/kg, po measured at 4 h; type: ADME, organism-based; conditions: brain and plasma, read-out: BPR
[27] = Plasma concentration in CD-1 mouse at 1 mg/kg, iv measured at 2 hrs by LC/MS/MS method; type: ADME, organism-based
[28] = Toxicity in CB17 SCID mouse assessed as induction of adverse effect at 2 mg/kg, iv; type: organism-based; conditions: in vivo
[29] = Toxicity in CB17 SCID mouse assessed as induction of adverse effect at 10 mg/kg, po; type: organism-based; conditions: in vivo
[30] = Toxicity in CB17 SCID mouse assessed as behavioural abnormalities at 100 mg/kg, po measured after 24 hrs; type: organism-based; conditions: in vivo
[31] = Toxicity in CB17 SCID mouse assessed as physical abnormalities at 100 mg/kg, po measured after 24 hrs; type: organism-based; conditions: in vivo
[32] = Toxicity in C57BL/6 mouse assessed as body weight loss at 25 mg/kg, po QD administered for 5 days measured after 24 hrs relative to control; type: organism-based; conditions: in vivo
[33] = Growth inhibition of human SU-DIPG-XXI cells harboring ACVR1 G328W mutant; type: functional
[34] = Growth inhibition of human HSJD-DIPG-007 cells harboring ACVR1 R206H mutant; type: functional
[35] = Ratio of drug level in brain to plasma in CB17 SCID mouse at 10 mg/kg, po measured at 4 h; type: ADME, organism-based; conditions: brain and plasma, read-out: BPR

Structure (SMILES) | IC50 (Activin receptor type-1B) | remaining at 1 h, 1 µM [8] | remaining at 1 h, 1 µM [9] | fraction unbound at 4 h, 5 µM [10] | fraction unbound at 4 h, 5 µM [11] | half-life at 1 µM [12] | half-life at 1 µM [13] | clearance [14] | clearance [15] | Vd [16] | Vd [17] | half-life [18] | half-life [19] | Cmax [20] | Cmax [21] | AUC(0-inf) [22] | AUC(0-inf) [23] | bioavailability [24] | bioavailability [25] | Kp at 4 h [26] | also measured
COc1cc(-c2cncc(-c3ccc(N4CCNCC4)cc3)c2C)cc(OC)c1OC | 1340 nM | 64.6% | 71.4% | 0.057 | 0.057 | > 1 h | > 1 h | 12.7 mL/min/kg | 22.1 mL/min/kg | 2.05 L/kg | 5.22 L/kg | 3.11 h | 3.58 h | 6160 nM | 1280 nM | 51.7 µM·h | 17.4 µM·h | 100% | 96% | 1.1 | IC50 [1]: 336 to 924 nM; IC50 [2]: 336 to 924 nM; IC50 [3]: 41 nM; IC50 (Misshapen-like kinase 1): 336 to 924 nM; IC50 [4]: 336 to 924 nM; IC50 [5]: 96 nM; IC50 [6]: 336 to 924 nM; IC50 [7]: 2180 nM; IC50 (Cytochrome P450 2C9): > 30000 nM; IC50 (Cytochrome P450 2D6): > 30000 nM; concentration at 2 h [27]: 156 nM; Activity [28]: Non-Toxic; Activity [29]: Non-Toxic; Activity [30]: Non-Toxic; Activity [31]: Non-Toxic; Activity [32]: Non-Toxic; GI50 [33]: 52 nM; GI50 [34]: 130 nM
COc1cc(-c2cncc(-c3ccc(C4CCN(C)CC4)cc3)c2C)cc(OC)c1OC | > 2000 nM | 55.5% | 71.2% | 0.05 | 0.05 | > 1 h | > 1 h | 8.9 mL/min/kg | 15.1 mL/min/kg | 2.44 L/kg | 4.33 L/kg | 3.67 h | 3.9 h | 4740 nM | 1160 nM | 32.4 µM·h | 12.9 µM·h | 74% | 50% | 1.55 | inhibition [1]: Active; inhibition [2]: Active; inhibition [3]: Active; inhibition (Misshapen-like kinase 1): Active; inhibition [5]: Active; inhibition [6]: Active; Kp at 4 h [35]: 0.82; Activity [28]: Non-Toxic; Activity [29]: Non-Toxic; Activity [30]: Non-Toxic; Activity [31]: Non-Toxic; GI50 [33]: 214 nM; GI50 [34]: 36 nM

— ChEMBL document CHEMBL4622974, “Leveraging an Open Science Drug Discovery Model to Develop CNS-Penetrant ALK2 Inhibitors for the Treatment of Diffuse Intrinsic Pontine Glioma” (J Med Chem, 2020)
